Results taken from the NIST ThermoML archive (doi:10.1016/j.jct.2010.04.001).
Values joined by “and” are separate entries in the source; they are usually repeats but may differ in a detail not shown here. Equal values may be shown once. Numbers after ± are expanded uncertainties.

Conditions: Crystal, Calculated from knudsen effusion weight loss

O=C(c1ccc[nH]1)C(Cl)(Cl)Cl [2-trichloroacetyl-1H-pyrrole]
Conditions | vapor or sublimation pressure
295.12 K | 0.000103 ± 5e-06 kPa and 9.92e-05 ± 5e-06 kPa and 0.000101 ± 5e-06 kPa
297.17 K | 0.000132 ± 7e-06 kPa and 0.000129 ± 6e-06 kPa
299.22 K | 0.000169 ± 8e-06 kPa and 0.000165 ± 8e-06 kPa and 0.000162 ± 8e-06 kPa
301.14 K | 0.000213 ± 1.1e-05 kPa and 0.000218 ± 1.1e-05 kPa
303.23 K | 0.000274 ± 1.4e-05 kPa and 0.000272 ± 1.4e-05 kPa and 0.000268 ± 1.3e-05 kPa
305.2 K | 0.000344 ± 1.7e-05 kPa and 0.000336 ± 1.7e-05 kPa and 0.000335 ± 1.7e-05 kPa
307.1 K | 0.000434 ± 2.2e-05 kPa and 0.00043 ± 2.2e-05 kPa and 0.000424 ± 2.1e-05 kPa
309.13 K | 0.000539 ± 2.7e-05 kPa and 0.000531 ± 2.7e-05 kPa and 0.000527 ± 2.6e-05 kPa
311.21 K | 0.000674 ± 3.4e-05 kPa and 0.000661 ± 3.3e-05 kPa and 0.000652 ± 3.3e-05 kPa
313.11 K | 0.000861 ± 4.3e-05 kPa and 0.000843 ± 4.2e-05 kPa and 0.000837 ± 4.2e-05 kPa
315.16 K | 0.00106 ± 0.00011 kPa and 0.001043 ± 0.00011 kPa and 0.001028 ± 0.0001 kPa
317.2 K | 0.001327 ± 0.00014 kPa and 0.001289 ± 0.00014 kPa and 0.00127 ± 0.00013 kPa

O=C(c1ccc[nH]1)C(F)(F)F [2-trifluoroacetylpyrrole]
Conditions | vapor or sublimation pressure
263.19 K | 0.000433 ± 2.2e-05 kPa and 0.000414 ± 2.1e-05 kPa and 0.000406 ± 2e-05 kPa
264.14 K | 0.00048 ± 2.4e-05 kPa and 0.000469 ± 2.3e-05 kPa
265.11 K | 0.000533 ± 2.7e-05 kPa and 0.000531 ± 2.7e-05 kPa
266.12 K | 0.000597 ± 3e-05 kPa and 0.00064 ± 3.2e-05 kPa and 0.000623 ± 3.1e-05 kPa
267.12 K | 0.000716 ± 3.6e-05 kPa and 0.00069 ± 3.5e-05 kPa and 0.00067 ± 3.4e-05 kPa
268.12 K | 0.000809 ± 4.1e-05 kPa and 0.000796 ± 4e-05 kPa and 0.000771 ± 3.9e-05 kPa
269.11 K | 0.0009 ± 4.5e-05 kPa and 0.000894 ± 4.5e-05 kPa and 0.000866 ± 4.3e-05 kPa
270.11 K | 0.001022 ± 0.0001 kPa and 0.000993 ± 5e-05 kPa
271.13 K | 0.001147 ± 0.00012 kPa and 0.00113 ± 0.00012 kPa and 0.001101 ± 0.00011 kPa
